These results are taken from patent publication US11155558B2, “Dual mode of action soluble guanylate cyclase activators and phosphodiesterase inhibitors and uses thereof” (TOPADUR PHARMA AG, priority 2017, dated 2021).

Broadly, the fraction unbound is free concentration divided by total concentration. A low value points to extensive binding. By IC50 is commonly meant the concentration needed to halve the response being measured. Broadly, the % inhibition is the percentage by which the read-out fell short of the control.

Data set [1] is described as follows: Measurements of human plasma protein binding. Format: in vitro ADME. As to the method:
An aliquot of 200 μL of human plasma containing test compound was spiked into donor well (red chamber) of the insert. 350 μL of PBS was spiked into receiver well (white chamber) of the insert.
The samples were matrix equilibrated with opposite matrix (25 μL of plasma/buffer sample was matched with 25 μL of blank buffer/plasma). Matrix matched samples were precipitated with 200 μL of acetonitrile containing internal standard. Samples were vortexed at 1000 rpm for 5 min and centrifuged at 4000 rpm for 10 min. Supernatant was separated, diluted 2 fold with water and analysed in LC-MS/MS. TO control samples were processed immediately after the preparation of plasma working stock solutions. These samples serves as a measure for calculating the percentage recovery of test compounds.

Data set [2] has as its target PDE5 enzyme isolated from human platelets (Homo sapiens (Human), UniProt O76074). Description: PDE5 assay (Example 109), formation of 5′GMP from cGMP, SPA.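 For all read-outs here: tritiated 5′GMP counted by scintillation after SPA bead capture, enzyme reaction run 60 min at 22 °C, basal control is the mixture without enzyme.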 Particulars: for % inhibition at 5.0E−09 M: percent inhibition of control enzyme activity at 5.0E−09 M, assay of Example 109.
Protocol: Evaluation of the effects of compounds of the present invention on the activity of the human phosphodiesterase-5 quantified by measuring the formation of 5′GMP from cGMP using PDE5 enzyme isolated from human platelets.
Thereafter, the reaction is initiated by addition of the enzyme and the mixture is incubated for 60 min at 22° C.
For basal control measurements, the enzyme is omitted from the reaction mixture. Following incubation SPA beads are added. After 20 min at 22° C. under shaking, the amount of [3H]5′GMP is quantified with a scintillation counter (Topcount, Packard).
The standard inhibitory reference compound is dipyridamole, which is tested in each experiment at several concentrations to obtain an inhibition curve from which its IC50 value is calculated.
Data set [3] relates to Human Pulmonary Artery Smooth Muscle Cells (hPASMC). Description: Measurements of cGMP in human pulmonary artery smooth muscle cells (hPASMC). Format: cell-based. To be noted: 30 min incubation, 0.1 pM-1 uM, compared to sildenafil, mirodenafil or compound 5 (FIG. 3). As to the method: Human Pulmonary Artery Smooth Muscle Cells (hPASMC) were purchased from Clonetics™ Lonza (Lonza, reference number CC-2581) and cultured in Clonetics™ smooth muscle growth medium (Clonetics™ SmGM™-2 with BulletKit™ growth factor supplements (Lonza, reference number CC-3182) at 37° C. in 5% CO2. Culture medium was replaced each 48 hours. Cells were grown in 75 cm^2 culture plates. 48 h before the experiments, cells were trypsinized (Trypsin kit One ReagentPack™ (CC-5034), Lonza) and plated in 96 well plates precoated with collagen I at 10000 cells per well. 24 h before the experiments culture medium was replaced by serum-reduced (0.5% FBS) medium. […]
Measurements of intracellular cGMP were performed using the Amersham cGMP EIA System (GE Healthcare, RPN226) following the instructions of the manufacturer. […] Briefly, incubations were terminated by adding Amersham's lysis buffer 1 and cells left for 10 min under agitation to ensure complete lysis. cGMP in samples was then acetylated using triethylamine and acetic anhydride and determined by a competitive ELISA. The ELISA is based on the competition between acetylated cGMP in cell culture lysates and a peroxidase-labelled cGMP conjugate for limited binding sites on a cGMP specific antiserum immobilized on pre-coated 96 well MTP. cGMP was determined based on a standard curve. […]

The target of data set [4] is recombinant human (rh) PDE5A (Homo sapiens (Human), UniProt O76074). Put plainly: Phosphodiesterase-5 activity assay (Example 110), radiometric SPA. The format is biochemical. Particulars: asterisk: assay described in Example 110, rhPDE5A1; read-out: IC50. As for the experimental part:
The inhibition of recombinant human (rh) PDE5A by test compounds is measured in a radiometric assay based on Scintillation Proximity Assay (SPA) technology. The substrate [3H]cGMP/cGMP is hydrolysed to [3H] 5′ GMP/5′ GMP contingent on the activity of rhPDE5A. The ensuing [3H] 5′ GMP/5′ GMP but not [3H] cGMP/cGMP binds to SPA yttrium silicate beads in the presence of Zn^++ stimulating the scintillant within the bead to emit light that is detected by a ß-counter. The assay is performed in a 96 well format.
The assay is done in 20 mM Tris HCl pH 7.4, 5 mM MgCl2, […] cGMP/[3H] cGMP (about 60000 dpm/well) substrate with rhPDE5A1 (GST tagged, SIGMA E9034) added to an amount not exceeding 20% cGMP hydrolysis within 20 min in Tris 20 mM pH 7.4 supplemented with 0.01% bovine serum albumin (BSA) in the presence of test compounds or vehicle (0.1% DMSO). The final assay volume amounts to 100 μl and the reaction is run for 20 min at 37° C.
The hydrolysis of [3H] cGMP/cGMP by rhPDE5A is terminated by adding SPA beads at 50 µl/well (Perkin Elmer, RPNQ0024), pre-diluted in water as per manufacturer's instructions and supplemented with 3-isobutyl-1-methylxanthine (1 mM). Beads are allowed to sediment for at least 30 min before measurement in a Wallac Microbeta 2 (Perkin Elmer).
In general, test compounds are added at seven different concentrations from […] in log steps. […] Results (IC50) are given as the mean from at least two independent experiments each performed in triplicate.

As for `CCCOc1ccc(S(=O)(=O)N2CCC(CCO[N+](=O)[O-])CC2)cc1-c1nc2c(CCC)cn(CC)c2c(=O)[nH]1` [Compound 1b, 2-(1-((3-(5-ethyl-4-oxo-7-propyl-4,5-dihydro-3H-pyrrolo[3,2-d]pyrimidin-2-yl)-4-propoxyphenyl)sulfonyl)piperidin-4-yl)ethyl nitrate], in data set [1], the “% Bound in Plasma” value was 99.95% and the fraction unbound turned out to be 0.0005. In data set [1] (human), the recovery was 100%. In addition, in data set [2], the 50% inhibitory concentration (IC50) is greater than 10 nM and the “% inhibition at 5.0E−09 M” value amounted to 12.4%. The “efficacy in increasing intracellular cGMP level” value in data set [3] is “significantly higher efficacy in increasing cGMP level”.
For the molecule `CCCOc1ccc(S(=O)(=O)N2CCN(CCO[N+](=O)[O-])CC2)cc1-c1nc2c(CCC)cn(CC)c2c(=O)[nH]1` [Compound 1i, 2-(4-((3-(5-ethyl-4-oxo-7-propyl-4,5-dihydro-3H-pyrrolo[3,2-d]pyrimidin-2-yl)-4-propoxyphenyl)sulfonyl)piperazin-1-yl)ethyl nitrate], in data set [2], the half-maximal inhibitory concentration (IC50) amounted to 2 nM and the “% inhibition at 5.0E−09 M” value is recorded as 60.0%. Besides, in data set [3], the “efficacy in increasing intracellular cGMP level” value is “significantly higher efficacy in increasing cGMP level”.
As for `CCCOc1ccc(S(=O)(=O)N2CCC([C@@H](O)CO[N+](=O)[O-])CC2)cc1-c1nc2c(CCC)c(/C=N/O)n(C)c2c(=O)[nH]1` [Compound 3q, (R,E)-2-hydroxy-2-(1-((3-(6-((hydroxyimino)methyl)-5-methyl-4-oxo-7-propyl-4,5-dihydro-3H-pyrrolo[3,2-d]pyrimidin-2-yl)-4-propoxyphenyl)sulfonyl)piperidin-4-yl)ethyl nitrate], in data set [4], the IC50 turned out to be 3.3 nM.
